Assay results taken from patent US20060194259A1, “Method for isolating an allosteric effector of a receptor” (priority 2002, published 2006).

What was measured:
[1] = biological target: T1, receptor EGFP-NK2R (UniProt P16610); assay: Dissociation kinetics of NKA-Bo bound to EGFP-NK2R by fluorescence energy transfer; format: binding; design: % al (max): maximum value observed for the increase in amplitude of the rapid dissociation rate; ns = n; other: 20 nM of NK; % al (at 10 μM); other: compou; fused on or other part: EGFP fused to the receptor as FRET donor; conditions: for λ1/λ2 amplitudes (rapid/slow) of dissociation of NKA-Bo: 30/70 without 805
T1 sequence (P16610 1-390): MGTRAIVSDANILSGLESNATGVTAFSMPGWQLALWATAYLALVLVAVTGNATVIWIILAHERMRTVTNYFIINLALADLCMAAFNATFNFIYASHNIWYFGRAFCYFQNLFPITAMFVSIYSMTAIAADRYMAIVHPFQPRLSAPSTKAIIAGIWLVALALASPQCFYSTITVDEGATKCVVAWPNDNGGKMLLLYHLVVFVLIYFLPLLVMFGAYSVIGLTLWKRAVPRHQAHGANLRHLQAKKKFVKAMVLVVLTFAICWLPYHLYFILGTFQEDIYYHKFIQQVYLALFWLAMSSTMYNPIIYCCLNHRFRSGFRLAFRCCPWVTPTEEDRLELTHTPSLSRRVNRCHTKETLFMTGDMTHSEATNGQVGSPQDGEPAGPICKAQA
Experimental: Dissociation (FIG. 4B): HEK 293 cells expressing the receptor EGFP-NK2R are put into suspension at a concentration of 1,000,000 cells/ml in Hepes physiological buffer (in mM: 137.5 NaCl; 1.25 MgCl2; 1.25 CaCl2; 6 KCl; 5.6 glucose; 10 Hepes; 0.4 NaH2PO4; 1% BSA (w/v); pH 7.4) and arranged in a 1 ml cuvette equipped with a magnetic stirrer on the cuvette holder of a SPEX fluorolog 3 spectrofluorimeter.
The amplitude of each relaxation is then given by the adjustment of the experimental traces.

[2] = biological target: T1, receptor EGFP-NK2R; assay: cAMP production caused by NKA in HEK 293 cells expressing EGFP-NK2R; format: cell-based; design: 805 at 10 or 50 μM; NKA alone; fused on or other part: EGFP fused to the receptor; conditions: read-out: inhibition constant KI of the maximum response of cAMP induced by the NKA; FIG. 9C
Experimental: 30 mm 6-well cell-culture dishes are treated with collagen then seeded with 50,000 cells expressing the receptor EGFP-NK2R. […] The quantity of cAMP produced (expressed in pmoles/well) is determined according to a radioimmunological process described in Gicquiaux et al. (2002).

SMILES: N#CCN(Cc1ccccc1)Cc1ccc2ccccc2c1 [compound 805, [benzyl(2-naphthylmethyl)amino]acetonitrile]
- λ1/λ2 amplitudes (rapid/slow) of dissociation of NKA-Bo ([1]; 1 μM 805): 35/65
- λ1/λ2 amplitudes (rapid/slow) of dissociation of NKA-Bo ([1]; 50 μM 805): 80/20
- % al (max): maximum value observed for the increase in amplitude of the rapid dissociation rate ([1]; Table 1, ns = not significant): 80%
- % al (at 10 μM) ([1]; compound 10 μM, T = 22 ± 1 is amplitude of rapid dissociation in the absence of effector): 29 (10 μM) %
- EC50 ([1]; read-out: EC50 (μM): concentration of compound causing a 50% increase (relative to the maximum value) in the percentage of the amplitude of the rapid dissociation rate, Table 1, dissociation of NKA-Bo from EGFP-NK2R, ns = not significant): 3 to 8 µM
- Ki [2]: ~6 µM
